From patent US20080194632A1, “Novel Piperidine Derivatives as Chemokine Receptor Modulators Useful for the Treatment of Respiratory Diseases” (ASTRAZENECA AB, priority 2005, published 2008)

Molecular target: T1, human CCR1 (Homo sapiens, UniProt P32246)
T1 construct: expressed in transfected cells; membranes prepared
T1 sequence (P32246 1-355): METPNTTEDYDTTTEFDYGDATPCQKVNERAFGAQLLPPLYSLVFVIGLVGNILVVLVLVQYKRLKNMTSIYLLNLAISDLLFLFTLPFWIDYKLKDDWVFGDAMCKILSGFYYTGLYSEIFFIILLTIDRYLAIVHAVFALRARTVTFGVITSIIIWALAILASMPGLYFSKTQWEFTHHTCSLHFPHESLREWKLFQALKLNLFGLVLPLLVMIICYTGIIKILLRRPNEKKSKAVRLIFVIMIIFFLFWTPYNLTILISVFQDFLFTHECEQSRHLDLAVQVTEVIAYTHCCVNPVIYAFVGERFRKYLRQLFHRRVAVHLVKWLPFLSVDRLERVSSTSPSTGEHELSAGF
Assay: Human CCR1 binding assay ([125I] MIP-1α displacement)
Conditions: displacement of 33 pM [125I] MIP-1α from HEK-CCR1 membranes, pH 7.4, 1.5 hrs at room temperature
Procedure: HEK293 cells, from ECACC, stably expressing recombinant human CCR1 (HEK-CCR1) were used to prepare cell membranes containing CCR1. The membranes were stored at −70° C. The concentration of membranes of each batch was adjusted to 10% specific binding of 33 pM [^125I] MIP-1α.
100 μL of HEK-CCR1 membranes diluted in assay buffer pH 7.4 (137 mM NaCl (Merck, Cat No 1.06404), 5.7 mM Glucose (Sigma, Cat No G5400), 2.7 mM KCl (Sigma, Cat No P-9333), 0.36 mM NaH2PO4×H2O (Merck, Cat No 1.06346), 10 mM HEPES (Sigma, Cat No H3375), 0.1% (w/v) Gelatine (Sigma, Cat No G2625)) with the addition of 17500 units/L Bacitracin (Sigma, Cat No B 1025) were added to each well of the 96 well filter plate (0.45 μm opaque Millipore cat no MHVB N4550). 12 μL of compound in assay buffer, containing 10% DMSO, was added to give final compound concentrations of 1×10^−5.5-1×10^−9.5 M. 12 μl cold human recombinant MIP-1α (270-LD-050, R&D Systems, Oxford, UK), 10 nM final concentration in assay buffer supplemented with 10% DMSO, was included in certain wells (without compound) as non-specific binding control (NSB). 12 μl assay buffer with 10% DMSO was added to certain wells (without compound) to detect maximal binding (B0).
12 μL [^125I] MIP-1α, diluted in assay buffer to a final concentration in the wells of 33 pM, was added to all wells. The plates with lid were then incubated for 1.5 hrs at room temperature. After incubation the wells were emptied by vacuum filtration (MultiScreen Resist Vacuum Manifold system, Millipore) and washed once with 200 μl assay buffer. After the wash, all wells received an addition of 50 μL of scintillation fluid (OptiPhase “Supermix”, Wallac Oy, Turko, Finland). Bound [^125I] MIP-1α was measured using a Wallac Trilux 1450 MicroBeta counter. Window settings: Low 5-High 1020, 1-minute counting/well.
The following equation was used to calculate percent displacement.
Percent displacement=1−((cpm test−cpm NSB)/(cpm B0−cpm NSB)) where:
cpm test=average cpm in duplicate wells with membranes and compound and [^125I] MIP-1α cpm; NSB=average cpm in the wells with membranes and MIP-1α and [^125I] MIP-1α (non-specific binding) cpm; B0=average cpm in wells with membranes and assay buffer and [^125I] MIP-1α (maximum binding).
The molar concentration of compound producing 50% displacement (IC50) was derived using the Excel-based program XLfit (version 2.0.9) to fit data to a 4-parameter logistics function.

IC50 | SMILES
0.4 nM | CCC(=O)Nc1cc(Cl)c(O)cc1OC[C@@](C)(O)CNC1CCN(Cc2ccc(Cl)cc2)CC1 [Example 1, N-{5-Chloro-2-[((2S)-3-{[1-(4-chlorobenzyl)piperidin-4-yl]amino}-2-hydroxy-2-methylpropyl)oxy]-4-hydroxyphenyl}propaneamide di-trifluoroacetate]
7 nM | CCC(=O)Nc1ccc(O)cc1OC[C@@](C)(O)CNC1CCN(Cc2ccc(Cl)cc2)CC1 [Comparison 1]
4.5 nM | CC(=O)Nc1ccc(O)cc1OC[C@@H](O)CNC1CCN(Cc2ccc(Cl)cc2)CC1 [Comparison 8]
3.9 nM | CC(=O)Nc1ccc(O)cc1OC[C@@](C)(O)CNC1CCN(Cc2ccc(Cl)cc2)CC1 [Comparison 2]
13.6 nM | CCC(=O)Nc1ccc(O)cc1OC[C@@H](O)CNC1CCN(Cc2ccc(Cl)cc2)CC1 [Comparison 9]
0.7 nM | CC(=O)Nc1cc(Cl)c(O)cc1OC[C@@](C)(O)CNC1CCN(Cc2ccc(Cl)cc2)CC1 [Example 2, N-{5-Chloro-2-[((2S)-3-{[1-(4-chlorobenzyl)piperidin-4-yl]amino}-2-hydroxy-2-methylpropyl)oxy]-4-hydroxyphenyl}acetamide di-trifluoroacetate]
1.6 nM | CC(=O)Nc1cc(Cl)c(O)cc1OC[C@@H](O)CNC1CCN(Cc2ccc(Cl)cc2)CC1 [Example 8, N-{5-Chloro-2-[((2S)-3-{[1-(4-chlorobenzyl)piperidin-4-yl]amino}-2-hydroxypropyl)oxy]-4-hydroxyphenyl}acetamide di-trifluoroacetate]
2.7 nM | CCC(=O)Nc1cc(Cl)c(O)cc1OC[C@@H](O)CNC1CCN(Cc2ccc(Cl)cc2)CC1 [Example 9, N-{5-Chloro-2-[((2S)-3-{[1-(4-chlorobenzyl)piperidin-4-yl]amino}-2-hydroxylpropyl)oxy]-4-hydroxyphenyl}propaneamide di-trifluoroacetate]
